How the values were obtained:
T7 RNA polymerase = T7 RNA polymerase (Escherichia phage T7, UniProt P00573); details: HB-WT Template, ARCA Cap (4:1 ARCA:GTP)
Protocol: The DNAzyme reaction was performed in a 20 μl reaction containing 1-2 μg RNA and 0.5 μM DNAzyme in 50 mM Tris-HCl pH 7.5. The reaction mixture was preheated at 85° C. for 30 seconds and equilibrate at 37° C. for 5 minutes and added magnesium chloride to 10 mM so that the total volume was 20 μl. The reaction mixture was incubated at 37° C. for 1 hour and stopped by adding 2 μL TURBO DNase and incubating at 37° C. for 30 minutes.
The DNAzyme reaction mixture was prepared for gel analysis by mixing with 2× NOVEX™ TBE-Urea sample buffer (Thermo Fisher Scientific, cat. no. LC6876) and heating at 70° C. for 2 minutes. The sample was loaded onto a NovEx™ 15% TBE-Urea gel (Thermo Fisher Scientific, cat. no. EC68855BOX) and ran at 15 V, 15 mA for 1 hour and 40 minutes or until the bromophenol blue dye migrated to the bottom of the gel. The gel was removed from the cassette, washed in water, and stained with SYBR™ Gold Nucleic Acid Gel Stain (Thermo Fisher Scientific, cat. no. S11494) for 5-10 minutes. Following a brief wash in water, the gel was visualized over an UV light and an image was captured using an iBRIGHT™ system (Thermo Fisher Scientific). Capping efficiency was determined using […] ™ software (ProteinSimple) to measure band intensities of the fast and slow migrating transcripts (capped transcripts are longer than uncapped transcripts; therefore uncapped migrates faster).

T7 or SP6 RNA polymerase = details: either 3'-OH of G or m7G can initiate elongation; cited from earlier work

Sequence of T7 RNA polymerase (P00573 whole entry, looked up): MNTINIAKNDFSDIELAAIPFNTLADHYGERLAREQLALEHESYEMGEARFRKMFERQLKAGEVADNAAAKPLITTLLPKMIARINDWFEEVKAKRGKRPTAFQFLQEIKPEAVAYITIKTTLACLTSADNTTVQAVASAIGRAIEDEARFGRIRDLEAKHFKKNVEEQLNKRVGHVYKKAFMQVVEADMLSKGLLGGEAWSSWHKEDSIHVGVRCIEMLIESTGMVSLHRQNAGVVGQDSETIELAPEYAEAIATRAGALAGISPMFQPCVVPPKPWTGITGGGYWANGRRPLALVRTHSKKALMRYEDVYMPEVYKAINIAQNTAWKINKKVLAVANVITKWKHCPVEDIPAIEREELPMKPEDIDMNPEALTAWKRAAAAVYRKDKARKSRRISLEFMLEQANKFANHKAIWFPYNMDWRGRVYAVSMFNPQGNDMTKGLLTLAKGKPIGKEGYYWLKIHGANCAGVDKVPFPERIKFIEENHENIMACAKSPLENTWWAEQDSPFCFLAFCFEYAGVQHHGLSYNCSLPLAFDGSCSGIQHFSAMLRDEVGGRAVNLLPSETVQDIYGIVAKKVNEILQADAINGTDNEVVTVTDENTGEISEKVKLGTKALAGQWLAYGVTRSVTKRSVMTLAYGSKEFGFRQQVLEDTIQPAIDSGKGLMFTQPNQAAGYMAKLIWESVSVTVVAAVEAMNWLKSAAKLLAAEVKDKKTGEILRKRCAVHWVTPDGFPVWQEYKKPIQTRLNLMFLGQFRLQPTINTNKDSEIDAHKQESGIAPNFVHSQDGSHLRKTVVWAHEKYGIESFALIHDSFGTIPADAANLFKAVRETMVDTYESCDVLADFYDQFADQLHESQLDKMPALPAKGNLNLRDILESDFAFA

Structure (SMILES) | Capping Efficiency Avg % capped (T7 RNA polymerase) | capped RNA that is translatable (T7 or SP6 RNA polymerase)
CO[C@H]1[C@@H](O)[C@H](n2c[n+](C)c3c(=O)[nH]c(N)nc32)O[C@@H]1COP(=O)(O)OP(=O)(O)OP(=O)(O)OC[C@H]1O[C@@H](n2cnc3c(=O)[nH]c(N)nc32)[C@H](O)[C@@H]1O [ARCA Cap] | 71.93% | –
Cn1c[n+]([C@@H]2O[C@H](COP(=O)(O)OP(=O)(O)OP(=O)(O)OC[C@H]3O[C@@H](n4cnc5c(=O)[nH]c(N)nc54)[C@H](O)[C@@H]3O)[C@@H](O)[C@H]2O)c2nc(N)[nH]c(=O)c21 [mCAP, m^7G(5′)ppp(5′)G] | – | ~50%
